In patent publication US20020006955A1, “Ginkgolides for inhibition of membrane expression of benzodiazepine receptors” (priority 1995, published 2002):

Key:
testosterone = experiment: Serum testosterone by radioimmunoassay in treated rats; format: in vivo, Sprague-Dawley rats; conditions: 2 mg/kg intraperitoneally once daily for eight days; for TESTOSTERONE: serum, control 4.50
Protocol: (§1) In each experiment, at least six rats per treatment group were used. After eight days of treatment, the rats were sacrificed.
(§2) The level of steroids in the rats was measured by radioimmunoassay from organic extracts of the collected serum. The levels of corticosterone (a glucocorticoid in rats) and testosterone were measured by radioimmunoassay using antibodies from Endocrine Sciences (Tarlana, Calif., USA) under conditions described by the supplier. The level of plasma ACTH was measured by radioimmunoassay using the method of Crousos, et al., New Engl. J. Med. 310:622 (1984). The level of aldosterone was measured by radioimmunoassay using a kit from Diagnostics Products Corp. (Los Angeles, Calif., USA).

[1] = target: 18 Kd peripheral benzodiazepine receptor protein; experiment: Benzodiazepine radioligand binding assay ([3H]PK 11195) in adrenal mitochondria; set-up: species or system rat
Protocol: See, Garnier, et al., Endocrinology 132:444 (1993). Mitochondria were prepared as described in Krueger, et al., J. Biol. Chem. 265:15015 (1990). Mitochondria ([…] of protein) were resuspended in phosphate buffered saline (PBS) and [^3H]PK 11195 (New England Nuclear, Wilmington, Del., USA). Binding studies were performed at 4° C. in a final incubation volume of 0.3 ml, using radioligand in the concentration range of 0.019-20.00 nM and 200 fold excess of unlabeled PK 11195 (Research Biochemicals, Natick, Mass., USA), as described in Garnier, et al., Endocrinology 132:444 (1993) and Garnier, et al., Mol. Pharm. 45:201 (1994). After 120 min. incubation time, the assay was stopped by filtration through Whatman GF/C filters and washed with 15 ml ice-cold PBS. Radioactivity trapped on the filters were determined by liquid scintillation counting at 50% counting efficiency. The dissociation constant (Kd) and the number of binding sites (Bmax) were determined by […] analysis of the data using the ligand™ program (Kell, V.4.0, Biosoft, Inc.). See Munson, et al., Anal. Biochem. 107:220 (1980).

aldosterone = experiment: Serum aldosterone by radioimmunoassay in treated rats; format: in vivo, Sprague-Dawley rats; conditions: 2 mg/kg intraperitoneally once daily for eight days; for ALDOS-STERONE: serum, control 685
Protocol: as §1, §2

[2] = system: corticosterone (a glucocorticoid in rats); experiment: Assay for determining the inhibition of glucocorticoids: serum corticosterone by radioimmunoassay; format: in vivo, Sprague-Dawley rats; conditions: 2 mg/kg intraperitoneally once daily for eight days; for CORTICOSTERONE: serum, control 161
Protocol: as §1, §2

plasma ACTH = experiment: Plasma ACTH by radioimmunoassay in treated rats; format: in vivo, Sprague-Dawley rats; conditions: 2 mg/kg intraperitoneally once daily for eight days; for ACTH: plasma, control 28.0
Protocol: as §1, §2

[3] = system: peripheral benzodiazepine receptor mRNA; experiment: mRNA expression of benzodiazepine receptor in adrenal tissue (RNA blot, PBR cDNA probe); set-up: species or system rat; conditions: adrenal tissue total RNA, densiometric analysis
Protocol: mRNA Expression of Benzodiazepine Receptor The ginkgolide induced decrease in mRNA expression of the benzodiazepine receptor was also confirmed. Total cellular RNA from adrenal tissue was isolated by the acid guanidinium thiocyanate-phenol-chloroform extraction method (Chomczynski, et al., Anal. Biochem. 162:156-159 (1987)) using the RNAzol B reagent (Tel-Test Inc., Friendswood, Texas, USA). RNA electrophoresis transfer, probe labelling, and membrane hybridization were performed as previously described in Dym, et al., Endocrinology 128:1167-1176 (1991). RNA was size-fractionated by electrophoresis and transferred to derivatized nylon membranes (Nytran Plus, Schleicher & Schuell, Keene, New Hampshire, USA). The blots were then hybridized against the [^32p] cDNA probe for PBR labelled by the random priming technique. The 781 base-pair probe for PBR mRNA used was prepared as previously described in Garnier, et al., Endocrinology 132:444-458 (1993). Screen enhanced autoradiography was performed by exposing Kodak X-OMAT AR films to the blots at −80° C for 48 hours. Densiometric analysis of the spots was performed as described above.

C[C@@H]1C(=O)O[C@H]2C[C@@]34[C@H]5C[C@@H](C(C)(C)C)[C@]36[C@@H](OC(=O)[C@@H]6O)O[C@@]4(C(=O)O5)[C@]21O [Ginkgolide A, ginkgolide A]
effect on serum levels of testosterone (testosterone): unaffected
TESTOSTERONE (testosterone): 4.75 ng/mL
Kd ([1]; dissociation constant of radioligand [3H]PK 11195 in adrenal mitochondria after treatment with the substance, 4° C., 120 min, control 1.7): 1.3 nM
decrease of expression of the 18 Kd peripheral benzodiazepine receptor protein ([1]; from Bmax versus control, adrenal mitochondria): 50%
Bmax ([1]; number of [3H]PK 11195 binding sites in adrenal mitochondria after treatment with the substance, control 11.2): 5.6 pmol/mg
effect on serum levels of aldosterone (aldosterone): unaffected
ALDOS-STERONE (aldosterone): 638 pg/mL
effect on the level of corticosterone in the rats [2]: decrease
CORTICOSTERONE [2]: 66 ng/mL
effect on ACTH release (plasma ACTH): increase ACTH release
ACTH (plasma ACTH): 103 pg/mL

CC1C(=O)OC2C(O)C34C5CC(C(C)(C)C)C36C(OC(=O)C6O)OC4(C(=O)O5)C12O (centres unmarked) [Ginkgolide B, ginkgolide B]
effect on serum levels of testosterone (testosterone): unaffected
TESTOSTERONE (testosterone): 4.50 ng/mL
reduction of peripheral benzodiazepine receptor mRNA expression [3]: 85%
effect on serum levels of aldosterone (aldosterone): unaffected
ALDOS-STERONE (aldosterone): 893 pg/mL
effect on the level of corticosterone in the rats [2]: decrease
CORTICOSTERONE [2]: 75 ng/mL
effect on ACTH release (plasma ACTH): increase ACTH release
ACTH (plasma ACTH): 71.4 pg/mL
